This is an account of results in patent publication US20050148521A1, “Anti-cancer combination and use thereof” (Yissum Research Development Company of the Hebrew University, priority 2002, published 2005).

Experiment [1] deals with EMT6/CTX mouse breast cancer cell line. The experiment in a line: EMT6/CTX subcutaneous tumor growth in mice (tumor volume). Format: in vivo. An excerpt:
Breast cancer is a highly lethal disease. To test the efficacy of rofecoxib, benzyl benzoate, cyclophosphamide, and pamidronate alone and in combination, a mouse breast cancer cell line, EMT6, that was originally isolated from a spontaneous tumor in a BALB/c mouse was used (Twentyman P R and Watson J V, Br. J. Cancer 35: 120 (1977)). This line was further selected for a drug resistant variant, EMT6/CTX, that was used in this study (Teicher B A et al. Cancer Chemother. Pharmacol. 37: 601 (1996)). An EMT6/CTX cell suspension was freshly prepared in DMEM medium+10% FCS, following trypsinization of cell grown in tissue culture. Anesthesia is performed by injecting 0.08 ml per mouse of Ketamine 30 mg/ml+0.07% Chanazine in PBS.
Rofecoxib (Vioxx, a Merck & Co. Inc. product), as an oral suspension. Diclofenac, water-soluble Vitamin K3 (menadione sodium bisulfite) and Benzyl benzoate, purchased from Sigma-Aldrich (St. Louise, […].), were formulated into solution in double-distilled water plus 2% Tween 20 (J.T. Baker, NJ). Cyclophosphamide, purchased from Bristol-Meyers Squibb (Princeton, N.J.), was formulated into solution in double-distilled water plus 2% Tween 20. Pamidronate (Pamidronic acid) was dissolved in 2M HEPES. The following doses were used for treatment in all three experiments: Rofecoxib 10 mg/kg, pamidronate 10 mg/kg, Diclofenac 30 or 60 mg/kg, menadione sodium bisulfite 20 or 50 mg/kg, cyclophosphamide (CTX) 50, 60 or 100 mg/kg and benzyl benzoate 80 or 550 mg/kg. Vehicle: 2% Tween 20 in double distilled water. The preparations were made in a concentration that will require an i.p. injection of 0.1 ml per 20 gr body weight to achieve the above doses.
All treatments were started 5 days after cell inoculation. Treatment comprised an intraperitoneal injection of 0.1 ml per 20 gr body weight of the formulation. Mice were treated twice a week for a period of 3 weeks.
Tumor dimensions were measured twice a week. Tumor volume was calculated according to conventional methods (volume=a^2×b×0.52 where a represents the tumor width and b is its length) and the data are represented as changes in tumor volume with time. Toxicity was evaluated by qualitative observation of the general appearance and behavior of the mice, by measuring their body weight during various intervals during the course of the treatments and by obtaining mortality data.

The subject of a further experiment is tumor-bearing mice. Description: Own studies with tumor-bearing mice, agent given by itself. The format is in vivo.
Another experiment concerns cancer. The following applies: Tetef M. et al. J. Cancer Res. Clin. Oncol. 121: 103-6 (1995); cited from earlier work.

Entries after “also recorded” stand apart in the source; their conditions may differ.

In the case of `O=C(OCc1ccccc1)c1ccccc1` [A, Benzyl benzoate], in experiment [1] (Experiment 4, FIG. 4, (CTX 50+BC)x2 per week+1/6A x6 per week vs CTX 50+ABC twice a week, 4 weeks), the “tumor volume, comparison of regimen” value is reported as “superiority of spreading the dose of A throughout the week”.
`O=P1(N(CCCl)CCCl)NCCCO1` (stereo not shown) [CTX 50, Cyclophosphamide]: the “effect on tumor growth” value in experiment [1] (Experiment 3, FIG. 3, i.p. twice a week for 4 weeks, start 3 days after inoculation) is on record as “moderate effect on tumor growth”. For the same molecule, the “tumor volume, comparison of regimen” value in experiment [1] (Experiment 7, FIG. 7, CTX 100 Sun. or CTX20 all week, D50 1, 3 or 5 days apart, A all week, 4 weeks) is listed as “preferred over equal small doses throughout the week”.
With `O=C(O)Cc1ccccc1Nc1c(Cl)cccc1Cl` [D, Diclofenac], the “tumor volume, comparison of NSAID” value in experiment [1] (Experiment 6, FIG. 6, NSAID Wed. with or without B, CTX 100 Sun., A all week, 4 weeks) is “superiority of D (25 and 50 mg/kg) over C (5 and 10 mg/kg, respectively)”.
On to `CS(=O)(=O)c1ccc(C2=C(c3ccccc3)C(=O)OC2)cc1` [Rofecoxib], for which the anti-cancer effect result in the experiment on tumor-bearing mice is “no significant anti-cancer effect”.
In the case of `CC1=CC(=O)c2ccccc2C1=O` [VK, 2-methyl-1,4-naphthalenedione], the “activity as an anti-cancer agent” value with cancer is recorded as “failed to show any activity”. Further, in experiment [1] (Experiment 8, FIG. 8, VK 20 mg/kg 6 times a week or 50 mg/kg twice a week added to CTX60+D30+A, 4 weeks), the “tumor volume, effect of addition of Vitamin K3” value is on record as “improve the efficacy of the treatment; also recorded: lower doses throughout the week (every day) is preferable”.
